Source: PubChem BioAssay AID1918952 (Molecular Pharmacology Branch, DTP, NCI, 2023)

Test system: LG0703-F948-PDC complex spheroid viability
Assay: Anticancer human tumor LG0703-F948-PDC patient-derived lung adenocarcinoma cell line growth inhibition
Settings: for IC50: curve of first compound; for viability, T/C: stronger effect = lower value
Summary of the method: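 Drug combinations with the LSD1 inhibitor iadademstat tested on tumor cells co-cultured as spheroids with endothelial cells and mesenchymal stem cells. Concentrations descended in half-log increments from clinical Cmax or 10 microM.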
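Also: spheroids exposed to agents for seven days before readout.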
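For viability, T/C in this document: 100% = DMSO vehicle control wells as normalization base.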

Q: `O=C(c1cc(Cc2n[nH]c(=O)c3ccccc23)ccc1F)N1CCN(C(=O)C2CC2)CC1` + NC1CCC(NC2CC2c2ccccc2)CC1 was tested. Which IC50 (second compound 0.1 µM) did it give?
A: The IC50 was > 10 µM.

Q: What about the IC50 (second compound 0.316 µM) of the same compound?
A: Its IC50 is > 10 µM.

Q: And the IC50 (second compound 1 µM)?
A: Its IC50 is > 10 µM.

Q: And the IC50 (second compound 3.16 µM)?
A: Its IC50 is > 10 µM.

Q: What about the IC50 (second compound 10 µM) of the same compound?
A: Its IC50 is > 10 µM.

Q: And the viability, T/C (second compound 0.1 µM, first compound 0.0316 µM)?
A: The viability, T/C was 101%.

Q: What about the viability, T/C (second compound 0.1 µM, first compound 0.1 µM) of the same compound?
A: The viability, T/C was 100%.

Q: What about the viability, T/C (second compound 0.1 µM, first compound 0.316 µM) of the same compound?
A: Its viability, T/C is 91.5%.

Q: What about the viability, T/C (second compound 0.1 µM, first compound 1 µM) of the same compound?
A: Its viability, T/C is 99.4%.

Q: What about the viability, T/C (second compound 0.1 µM, first compound 3.16 µM) of the same compound?
A: The viability, T/C was 80.9%.

Q: What about the viability, T/C (second compound 0.1 µM, first compound 10 µM) of the same compound?
A: Its viability, T/C is 76.8%.

Q: And the viability, T/C (second compound 0.316 µM, first compound 0.0316 µM)?
A: Its viability, T/C is 112%.

Q: And the viability, T/C (second compound 0.316 µM, first compound 0.1 µM)?
A: The viability, T/C was 117%.

Q: And the viability, T/C (second compound 0.316 µM, first compound 0.316 µM)?
A: Its viability, T/C is 106%.

Q: And the viability, T/C (second compound 0.316 µM, first compound 1 µM)?
A: Its viability, T/C is 89.4%.

Q: And the viability, T/C (second compound 0.316 µM, first compound 3.16 µM)?
A: Its viability, T/C is 94.3%.

Q: And the viability, T/C (second compound 0.316 µM, first compound 10 µM)?
A: The viability, T/C was 84%.

Q: What about the viability, T/C (second compound 1 µM, first compound 0.0316 µM) of the same compound?
A: The viability, T/C was 121%.

Q: What about the viability, T/C (second compound 1 µM, first compound 0.1 µM) of the same compound?
A: The viability, T/C was 125%.

Q: And the viability, T/C (second compound 1 µM, first compound 0.316 µM)?
A: Its viability, T/C is 123%.

Q: What about the viability, T/C (second compound 1 µM, first compound 1 µM) of the same compound?
A: Its viability, T/C is 130%.

Q: And the viability, T/C (second compound 1 µM, first compound 3.16 µM)?
A: Its viability, T/C is 95.3%.

Q: And the viability, T/C (second compound 1 µM, first compound 10 µM)?
A: Its viability, T/C is 98.2%.

Q: What about the viability, T/C (second compound 3.16 µM, first compound 0.0316 µM) of the same compound?
A: Its viability, T/C is 116%.

Q: And the viability, T/C (second compound 3.16 µM, first compound 0.1 µM)?
A: The viability, T/C was 110%.

Q: And the viability, T/C (second compound 3.16 µM, first compound 0.316 µM)?
A: Its viability, T/C is 113%.

Q: And the viability, T/C (second compound 3.16 µM, first compound 1 µM)?
A: The viability, T/C was 107%.

Q: And the viability, T/C (second compound 3.16 µM, first compound 3.16 µM)?
A: Its viability, T/C is 112%.

Q: What about the viability, T/C (second compound 3.16 µM, first compound 10 µM) of the same compound?
A: Its viability, T/C is 106%.

Q: What about the viability, T/C (second compound 10 µM, first compound 0.0316 µM) of the same compound?
A: The viability, T/C was 109%.

Q: What about the viability, T/C (second compound 10 µM, first compound 0.1 µM) of the same compound?
A: Its viability, T/C is 106%.

Q: What about the viability, T/C (second compound 10 µM, first compound 0.316 µM) of the same compound?
A: Its viability, T/C is 103%.

Q: And the viability, T/C (second compound 10 µM, first compound 1 µM)?
A: The viability, T/C was 109%.

Q: And the viability, T/C (second compound 10 µM, first compound 3.16 µM)?
A: Its viability, T/C is 94%.

Q: And the viability, T/C (second compound 10 µM, first compound 10 µM)?
A: The viability, T/C was 84%.
